Measured values: US20080267947A1, “Cancer therapy with cantharidin and cantharidin analogs” (priority 2006, published 2008)
pIC50: −log10 of the molar value. Read-outs that look alike come from different tables or passages of the source.

What was measured:
[1] = XTT colorimetric cytotoxicity assay on cord blood CD34+ cells; assay type: cell-based; conditions: CD34+ cells from normal human cord blood; FIG. 1; read-out: IC50, cytotoxicity against CD34+ cells (XTT)
Experimental: (§1) Determination of cell viability using the XTT assay: In some cases, CD34+ cells are isolated from human cord blood using magnetic beads coated with anti-CD34 antibody. Isolated cells are then counted and aliquoted into 96-well plates and then incubated in the presence of varying concentrations of cantharidin or norcantharidin. Cell viability it measured by the addition of the XTT calorimetric reagent. Viability is determined by the absorbance of treated cultures at approximately 450-500 nm compared to untreated cultures. In other cases, the cells used in the assay may be a leukemia cell line, such as MV4; 11. The assay can also be used to determine the time course of cell killing by various compounds by performing the XTT assay on cultures that are incubated with the compounds for varying periods of time.
(§2) CD34^+ cells were obtained from normal human cord blood by magnetic bead selection using anti-CD34 antibody coated beads. The cytotoxicity of cantharidin and norcantharidin against these cells was measured by a colorimetric assay using XTT (sodium 3′-{1-[(phenylamino)-carbonyl]-3,4-tetrazolium}-bis(4-methoxy-6-nitro) benzene-sulfonic acid hydrate). […] The absorbance of the supernatant was measured at 450 and 630 nm of wells without drug (with cells) as 100% and wells without cells as 0%. […]

[2] = test system: CD34+ cells obtained from a leukemia patient (leukemic cancer stem cells); experiment: Cobblestone area forming cell (CAFC) assay, leukemia patient versus cord blood CD34+ cells; assay type: cell-based, human; conditions: 10 μM and 75 μM overnight; for sensitivity of leukemia cancer stem cells relative to normal stem cells (cord blood CD34+): CAFC, 5 weeks; for activity against leukemic cancer stem cells (cobblestone area counts vs control): cobblestone areas counted after 5 weeks on MS-5 monolayer, FIGS. 2 and 3
Experimental: (§3) Cobblestone assay: The cobblestone area-forming cell (CAFC) assay exploits a reproducible visual end point for the quantitation of cancer stem cells. Leukemia samples are added to adherent cultures of stromal cells, some embodiments MS-5 stromal cells. The cancer stem cells in the culture will migrate below the MS-5 stromal cells and form a colony of cells called a cobblestone that can be visual quantitated. To test the effect of cantharidin or norcantharidin on the cancer stem cell population using this assay, cells are first cultured in the presence of the drug. In some embodiments the cells are cultured for 16 hours. After this incubation, the cells are added to the stromal cultures. A reduction in the cobblestone area formation in cultures that were treated with the drug compared to the untreated cells represents cancer stem cell activity for the drug.
Cells were treated with 10 μM and 75 μM cantharidin or norcantharidin overnight. To assay for stem cells by the cobblestone area forming cell (CAFC) assay, CD34^+ cells subsequent to drug treatment were co-cultured with the MS-5 monolayer in X-Eagle minimum essential medium (α-MEM) containing 10% heat-inactivated FCS, 10% horse serum, 1×10^−6 M hydrocortisone, 2 mM L-glutamine, and 100 U/mL penicillin/streptomycin. After 5 weeks in culture, total cobblestone areas were counted. FIGS. 2 and 3 show bar graphs representing cobblestone area counts in the presence of no drug (control) and 10 and 75 μM of cantharidin and norcantharidin, respectively, using CD34+ cells obtained from a leukemia patient, and CD34+normal stem cells isolated from human cord blood.

[3] = test system: MV4; 11 leukemia cells; experiment: XTT cytotoxicity assay on MV4;11 leukemia cells, 5 days exposure; assay type: cell-based; conditions: 5 days of exposure to drug, read-out: IC50, cytotoxicity against MV4;11 leukemia cells (XTT)
Experimental: as §1
The cytotoxicity of Cantharidin and Norcantharidin against MV4; 11 leukemia cells was measured by a calorimetric assay using XTT. MV4; 11 cells were plated in 96-well plates and the following day, cells were exposed to varying doses of cantharidin and norcantharidin. After 5 days of exposure to drugs, 50 μL of 1 mg/mL XTT and 0.025 mM phenazine methosulfate (PMS) were added. The absorbance of the supernatant was measured at 450 and 630 nm of wells not treated with drug (with cells) as 100% and wells without cells as 0%.

[4] = test system: MV4; 11 cells; experiment: XTT time course of killing of MV4;11 cells; assay type: cell-based; conditions: at 72 hours
Experimental: as §1
The XTT assay was used to determine the time course of killing of MV4; 11 cells incubated with cantharidin and norcantharidin over time.
Cantharidin was dissolved in DMSO at different concentrations to ensure that final concentrations of DMSO are equivalent in all wells. To control for potential cytotoxic effects of DMSO itself, an equivalent amount of DMSO containing no drug was used as a control.
Norcantharidin was dissolved in DMSO at different concentrations to ensure that final concentrations of DMSO are equivalent in all wells. To control for potential cytotoxic effects of DMSO itself, an equivalent amount of DMSO containing no drug was used as a control.

[5] = test system: leukemia stem cells from bone marrow of a patient with acute myelgenous leukemia (AML); experiment: CAFC assay of leukemia stem cells treated with cantharidin and standard chemotherapy; assay type: cell-based, human; conditions: 16 hours treatment, each of the concentrations tested; cobblestone areas after 5 weeks; FIG. 6
Experimental: as §3
Samples of primary human cord blood as well as from the bone marrow of a patient with acute myelgenous leukemia (AML) were tested. Cantharidin and norcantharidin were dissolved in DMSO, and Ara-c and daunorubicin were prepared according to the supplier's instructions. In addition, untreated controls (diluent alone) for both normal and leukemic CD34+ cells were also tested. Cells were treated with varying concentrations of drug for 16 hours. […] After 5 weeks in culture, total cobblestone areas were counted visually using a microscope.

[6] = test system: CD34+ cells from normal human cord blood; experiment: XTT colorimetric cytotoxicity assay on cord blood CD34+ cells; assay type: cell-based; conditions: FIG. 1, read-out: IC50, cytotoxicity against CD34+ cells (XTT)
Experimental: as §1, §2

SMILES	pIC50 [1]	sensitivity of leukemia cancer stem cells relative to normal stem cells (cord blood CD34+) [2]	activity against leukemic cancer stem cells (cobblestone area counts vs control) [2]	pIC50 ([3]; Homo sapiens, MV4-11, 120 h)	viability at 30 µM ([4]; Homo sapiens, MV4-11, 30 μM, read-out: cell viability of MV4;11 cells)	viability at 100 µM ([4]; Homo sapiens, MV4-11, 100 μM, read-out: cell viability of MV4;11 cells)	sensitivity of leukemia stem cells compared with cytarabine or daunorubicin (CAFC) [5]	pIC50 [6]	pIC50 [3]	cell viability of MV4;11 cells ([4]; 30 μM)	cell viability of MV4;11 cells ([4]; 100 μM)
C[C@@]12C(=O)OC(=O)[C@]1(C)[C@H]1CC[C@@H]2O1 [cantharidin]	5.19	increased sensitivity	potent activity	5.12	< 10%	< 10%	more sensitive	–	–	–	–
O=C1OC(=O)[C@H]2[C@@H]1[C@@H]1CC[C@H]2O1 [norcantharidin]	–	increased sensitivity	potent activity	–	–	–	–	4.28	4.62	less than 10%	less than 10%
